Several values for one entry are separate records, joined by “and”; a condition that tells them apart may be missing. Identical values can stand only once. Like-named read-outs stand apart in the source and are kept apart here.
How the values were obtained:
SK1 isolate of HIV-1 = settings: for p24 VALUES, single samples: samples 1-3; for IC50 (inhibition of cell-cell transmission): linear regression
From the text: (§1) ME180 cells, a cervical epithelial cell line, were obtained from the American Type Culture Collection. These cells were thawed from liquid nitrogen and grown in RPMI 1640 medium supplemented with 10t fetal bovine serum, glutamine and antibiotics. The cells were adherent and were trypsinized (0.5% trypsin in HBSS) to remove them from the flask for passaging and use in assays. For use in the microtiter transmission inhibition assay, ME180 cells were trypsinized, washed and seeded in 96-well flat bottom microtiter plates (COSTAR) at a density of 5×10^3 cells per well. The cells were incubated at 37° C. for 24 hours prior to the tart of the assay. H9 cells chronically infected with he SK1 isolate of HIV-1 were treated with 200 μg/ml mitomycin C for 60 minutes at 37° C. After treatment the cells were washed three times with tissue culture medium. The chronically infected lymphocytes were added to each well at a density of 2×10^4 cells per well. The concentration of mitomycin C used in the treatment of the lymphocytes was chosen to allow lymphocyte survival for the period of time required to transmit virus to the uninfected ME180 cells, but to die prior to the time of assay so as not to contribute to the p24 signal used as the endpoint (see below). In the transmission assay the lytic peptides D4E1 and D2A21, with and without 150 μg/ml pig mucin, were added prior to the addition of chronically infected cells or were mixed with the chronically infected cells prior to their addition to the monolayer of ME180 cells. Mucin was included because it is an abundant constituent of the normal vaginal secretions of a human being, thus any chemotherapeutic agent targeting HIV should be active in its presence if it is to have clinical value. […] The lymphocytes and peptide were co-cultured with the ME180 cells for 6 hours and then removed by washing the ME180 monolayer four times with PBS. The plate was then incubated at 37° C. for six days. Medium was removed and changed every 48 hours during the incubation stage. No further peptide was added after the initial dose. At six days post-co-cultivation, the supernatant was removed from the wells and evaluated for the quantity of p24 antigen by ELISA. The ELISA was performed according to the manufacturer's recommendations. The amount of virus production in wells treated with various concentrations of the peptides was evaluated with appropriate cell and virus controls. Data are reported as a percent of virus control at each drug concentration. Linear regression analysis was used to calculate the […] and IC95 concentrations of the transmission inhibitor. […] TI represents the toxicity index, which is the ratio of the TC50/IC50, and is an indication of the relative concentrations window that exists between efficacy and toxicity.

ME180 cells = test: toxicity (XTT) in transmission inhibition assay; settings: for TOXICITY VALUES (XTT), single samples: samples 1-3; for TC50 (concentration at which 50% of cells are eliminated): interpolation from % CC
From the text: as §1

[1] = 0.32 μg/ml, with 150 μg/ml pig mucin
[2] = 1 μg/ml, with 150 μg/ml pig mucin
[3] = 3.2 μg/ml, with 150 μg/ml pig mucin
[4] = 10 μg/ml, with 150 μg/ml pig mucin
[5] = 32 μg/ml, with 150 μg/ml pig mucin
[6] = 100 μg/ml, with 150 μg/ml pig mucin

dextran sulfate
% VC (p24, percent of virus control) (SK1 isolate of HIV-1; 0.32 μg/ml, no mucin): 5.9% | p24 VALUES, MEAN (SK1 isolate of HIV-1; 0.32 μg/ml, no mucin): 3.2 µg/mL | % VC (p24, percent of virus control) (SK1 isolate of HIV-1; [1]): 7.7% | p24 VALUES, MEAN (SK1 isolate of HIV-1; [1]): 4.5 µg/mL | p24 VALUES, single samples (SK1 isolate of HIV-1; [1]): 5.0 µg/mL and 3.2 µg/mL and 6.1 µg/mL | % VC (p24, percent of virus control) (SK1 isolate of HIV-1; 1 μg/ml, no mucin): 7.6% | p24 VALUES, MEAN (SK1 isolate of HIV-1; 1 μg/ml, no mucin): 4.1 µg/mL | % VC (p24, percent of virus control) (SK1 isolate of HIV-1; [2]): 7.8% | p24 VALUES, MEAN (SK1 isolate of HIV-1; [2]): 4.9 µg/mL | % VC (p24, percent of virus control) (SK1 isolate of HIV-1; 3.2 μg/ml, no mucin): 0.0% | p24 VALUES, MEAN (SK1 isolate of HIV-1; 3.2 μg/ml, no mucin): 0.0 µg/mL | p24 VALUES, single samples (SK1 isolate of HIV-1; 3.2 μg/ml, no mucin): 0.0 µg/mL | % VC (p24, percent of virus control) (SK1 isolate of HIV-1; [3]): 11.4% | p24 VALUES, MEAN (SK1 isolate of HIV-1; [3]): 7.1 µg/mL | % VC (p24, percent of virus control) (SK1 isolate of HIV-1; 10 μg/ml, no mucin): 0.2% | p24 VALUES, MEAN (SK1 isolate of HIV-1; 10 μg/ml, no mucin): 0.0 µg/mL | % VC (p24, percent of virus control) (SK1 isolate of HIV-1; [4]): 11.6% | p24 VALUES, MEAN (SK1 isolate of HIV-1; [4]): 7.2 µg/mL | % VC (p24, percent of virus control) (SK1 isolate of HIV-1; 32 μg/ml, no mucin): 0.0% | p24 VALUES, MEAN (SK1 isolate of HIV-1; 32 μg/ml, no mucin): 0.0 µg/mL | p24 VALUES, single samples (SK1 isolate of HIV-1; 32 μg/ml, no mucin): 0.0 µg/mL | % VC (p24, percent of virus control) (SK1 isolate of HIV-1; [5]): 14.6% | p24 VALUES, MEAN (SK1 isolate of HIV-1; [5]): 9.0 µg/mL | % VC (p24, percent of virus control) (SK1 isolate of HIV-1; 100 μg/ml, no mucin): 0.0% | p24 VALUES, MEAN (SK1 isolate of HIV-1; 100 μg/ml, no mucin): 0.0 µg/mL | p24 VALUES, single samples (SK1 isolate of HIV-1; 100 μg/ml, no mucin): 0.0 µg/mL | % VC (p24, percent of virus control) (SK1 isolate of HIV-1; [6]): 8.0% | p24 VALUES, MEAN (SK1 isolate of HIV-1; [6]): 4.9 µg/mL | IC50 (inhibition of cell-cell transmission) (SK1 isolate of HIV-1; no mucin): IC50 = 0.002 μg/ml | IC50 (inhibition of cell-cell transmission) (SK1 isolate of HIV-1; with 150 μg/ml pig mucin): IC50 = 0.002 μg/ml | % CC (XTT, percent of cell control) (ME180 cells; 0.32 μg/ml, no mucin): 95.4% | TOXICITY VALUES (XTT), MEAN (ME180 cells; 0.32 μg/ml, no mucin): 0.485 O.D. @ 450/650 nm | TOXICITY VALUES (XTT), single samples (ME180 cells; 0.32 μg/ml, no mucin): 0.477 O.D. @ 450/650 nm and 0.473 O.D. @ 450/650 nm and 0.504 O.D. @ 450/650 nm | % CC (XTT, percent of cell control) (ME180 cells; [1]): 95.4% | TOXICITY VALUES (XTT), MEAN (ME180 cells; [1]): 0.485 O.D. @ 450/650 nm | TOXICITY VALUES (XTT), single samples (ME180 cells; [1]): 0.477 O.D. @ 450/650 nm and 0.473 O.D. @ 450/650 nm and 0.504 O.D. @ 450/650 nm | % CC (XTT, percent of cell control) (ME180 cells; 1 μg/ml, no mucin): 98.4% | TOXICITY VALUES (XTT), MEAN (ME180 cells; 1 μg/ml, no mucin): 0.500 O.D. @ 450/650 nm | TOXICITY VALUES (XTT), single samples (ME180 cells; 1 μg/ml, no mucin): 0.479 O.D. @ 450/650 nm and 0.519 O.D. @ 450/650 nm and 0.501 O.D. @ 450/650 nm | % CC (XTT, percent of cell control) (ME180 cells; [2]): 98.4% | TOXICITY VALUES (XTT), MEAN (ME180 cells; [2]): 0.500 O.D. @ 450/650 nm | TOXICITY VALUES (XTT), single samples (ME180 cells; [2]): 0.479 O.D. @ 450/650 nm and 0.519 O.D. @ 450/650 nm and 0.501 O.D. @ 450/650 nm | % CC (XTT, percent of cell control) (ME180 cells; 3.2 μg/ml, no mucin): 91.5% | TOXICITY VALUES (XTT), MEAN (ME180 cells; 3.2 μg/ml, no mucin): 0.465 O.D. @ 450/650 nm | TOXICITY VALUES (XTT), single samples (ME180 cells; 3.2 μg/ml, no mucin): 0.483 O.D. @ 450/650 nm and 0.456 O.D. @ 450/650 nm and 0.457 O.D. @ 450/650 nm | % CC (XTT, percent of cell control) (ME180 cells; [3]): 91.6% | TOXICITY VALUES (XTT), MEAN (ME180 cells; [3]): 0.465 O.D. @ 450/650 nm | TOXICITY VALUES (XTT), single samples (ME180 cells; [3]): 0.483 O.D. @ 450/650 nm and 0.456 O.D. @ 450/650 nm and 0.457 O.D. @ 450/650 nm | % CC (XTT, percent of cell control) (ME180 cells; 10 μg/ml, no mucin): 95.7% | TOXICITY VALUES (XTT), MEAN (ME180 cells; 10 μg/ml, no mucin): 0.486 O.D. @ 450/650 nm | TOXICITY VALUES (XTT), single samples (ME180 cells; 10 μg/ml, no mucin): 0.463 O.D. @ 450/650 nm and 0.499 O.D. @ 450/650 nm and 0.497 O.D. @ 450/650 nm | % CC (XTT, percent of cell control) (ME180 cells; [4]): 95.7% | TOXICITY VALUES (XTT), MEAN (ME180 cells; [4]): 0.486 O.D. @ 450/650 nm | TOXICITY VALUES (XTT), single samples (ME180 cells; [4]): 0.463 O.D. @ 450/650 nm and 0.499 O.D. @ 450/650 nm and 0.497 O.D. @ 450/650 nm | % CC (XTT, percent of cell control) (ME180 cells; 32 μg/ml, no mucin): 92.5% | TOXICITY VALUES (XTT), MEAN (ME180 cells; 32 μg/ml, no mucin): 0.470 O.D. @ 450/650 nm | TOXICITY VALUES (XTT), single samples (ME180 cells; 32 μg/ml, no mucin): 0.444 O.D. @ 450/650 nm and 0.466 O.D. @ 450/650 nm and 0.499 O.D. @ 450/650 nm | % CC (XTT, percent of cell control) (ME180 cells; [5]): 92.5% | TOXICITY VALUES (XTT), MEAN (ME180 cells; [5]): 0.470 O.D. @ 450/650 nm | TOXICITY VALUES (XTT), single samples (ME180 cells; [5]): 0.444 O.D. @ 450/650 nm and 0.466 O.D. @ 450/650 nm and 0.499 O.D. @ 450/650 nm | % CC (XTT, percent of cell control) (ME180 cells; 100 μg/ml, no mucin): 98.7% | TOXICITY VALUES (XTT), MEAN (ME180 cells; 100 μg/ml, no mucin): 0.491 O.D. @ 450/650 nm | TOXICITY VALUES (XTT), single samples (ME180 cells; 100 μg/ml, no mucin): 0.479 O.D. @ 450/650 nm and 0.500 O.D. @ 450/650 nm and 0.495 O.D. @ 450/650 nm | % CC (XTT, percent of cell control) (ME180 cells; [6]): 98.7% | TOXICITY VALUES (XTT), MEAN (ME180 cells; [6]): 0.491 O.D. @ 450/650 nm | TOXICITY VALUES (XTT), single samples (ME180 cells; [6]): 0.479 O.D. @ 450/650 nm and 0.500 O.D. @ 450/650 nm and 0.495 O.D. @ 450/650 nm | TC50 (concentration at which 50% of cells are eliminated) (ME180 cells; no mucin): TC50 = 1 μg/ml | TC50 (concentration at which 50% of cells are eliminated) (ME180 cells; with 150 μg/ml pig mucin): TC50 = 1 μg/ml
